Where a name gives a salt, the structure may show the parent alone.
Columns and labels:
Assay type in all cases: in vivo, mice
MV4-11 AML xenografts = assay: Subcutaneous MV4-11 xenograft antitumor activity; settings: 50 mg/kg qdx21, day 49
Method: (§1) All animal studies were performed in accordance with American Association for Laboratory Animal Care institutional guidelines, and all protocols were approved by the Eli Lilly and Company Animal Care and Use Committee. Tumor cell lines were grown, harvested, and resuspended in a 1:1 mixture of serum-free media and matrigel (BD Biosciences), and 5 × 10^6 cells were injected subcutaneously in the rear flank of 5-to-6-week-old CD1 nu/nu female mice (Charles River Laboratories for MV4-11, mice from Harlan Laboratories for others).
(§2) When the mean tumor volume was approximately 150–300 mm^3, animals were randomized by tumor volume and the compound was administered. […] Gemcitabine was formulated in saline and administered by intraperitoneal injection. Tumor volume and body weight were measured twice weekly. When tumors were collected for biomarker analysis, the animals were asphyxiated with CO2 and the xenograft tumors excised, flash frozen in liquid nitrogen, and stored at −80 °C until analyzed. For analysis, tumor volume data were transformed to a log scale to equalize variance across time and treatment groups. The log volume data were analyzed with a 2-way repeated measures analysis of variance by time and treatment using the MIXED procedure in SAS software (version 9.2). The correlation model for the repeated measures was spatial power. […]

H460 lung xenografts = assay: Subcutaneous H460 xenograft antitumor activity; settings: 50 mg/kg qdx21, day 35
Method: as §1, §2

[1] = test system: U87 MG glioblastoma xenografts; assay: Subcutaneous U87 MG xenograft antitumor activity; settings: 50 mg/kg qdx21, day 31
Method: as §1, §2

[2] = test system: Colo-205 colorectal xenografts; assay: Subcutaneous colo-205 xenograft antitumor activity; settings: Colo-205 colorectal
Method: as §1
(§3) When the mean tumor volume was approximately 150–300 mm^3, animals were randomized by tumor volume and the compound was administered. […] Gemcitabine was formulated in saline and administered by intraperitoneal injection. Tumor volume and body weight were measured twice weekly. When tumors were collected for biomarker analysis, the animals were asphyxiated with CO2 and the xenograft tumors excised, flash frozen in liquid nitrogen, and stored at −80 °C until analyzed. For analysis, tumor volume data were transformed to a log scale to equalize variance across time and treatment groups. The log volume data were analyzed with a 2-way repeated measures analysis of variance by time and treatment using the MIXED procedure in SAS software (version 9.2). The correlation model for the repeated measures was spatial power. Treated groups are compared to the control group at each time point.

Jeko1 MCL xenografts = assay: Subcutaneous Jeko1 xenograft antitumor activity; settings: 100 mg/kg, day 45
Method: as §1, §2

Calu-6 lung xenografts = assay: Subcutaneous Calu-6 xenograft antitumor activity; settings: 50 mg/kg LY2835219 oral, 60 or 150 mg/kg gemcitabine i.p.
Method: as §1, §2

[3] = test system: RRM1 expression in Calu-6 xenografts; assay: Western blot of RRM1 in Calu-6 xenograft tumors; settings: 150 mg/kg dose, Calu-6 tumors 24 h after last dose
Method: as §3

SMILES | Percent delta T/C, percent regression (MV4-11 AML xenografts) | Percent delta T/C, percent regression (H460 lung xenografts) | Percent delta T/C, percent regression [1] | Percent delta T/C, percent regression ([2]; 50 mg/kg (schedule not given), day 39) | Percent delta T/C, percent regression ([2]; 100 mg/kg qdx21, day 35) | Percent delta T/C, percent regression (Jeko1 MCL xenografts) | tumor growth inhibition, compound alone (Calu-6 lung xenografts) | increase of RRM1 compared to vehicle [3]
CC(=O)c1c(C)c2cnc(Nc3ccc(N4CCNCC4)cn3)nc2n(C2CCCC2)c1=O [PD0332991, 6-Acetyl-8-cyclopentyl-5-methyl-2-[[5-(1-piperazinyl)-2-pyridinyl]amino] pyrido[2,3-d] pyrimidin-7 (8H)-one] | 16% | 60% | 26% | 7% | −1% | 12% |  | 
Nc1ccn([C@@H]2O[C@H](CO)[C@@H](O)C2(F)F)c(=O)n1 [gemcitabine, 2′,2′-difluorodeoxycytidine hydrochloric salt] |  |  |  |  |  |  | active in inhibiting tumor growth | 75%

From article PMC4169866 (Investigational New Drugs, 2014)
